Experimental data as given in article PMC9944328 (Nature Communications, 2023).
Where “and” joins values, the source holds several entries; their conditions need not be identical. Identical values can stand only once.

Molecular target: SSTR2 (Homo sapiens, UniProt P30874)
Experiment: SSTRs Gi-mediated cAMP inhibition, GloSensor, HEK293, 5 μM forskolin, 15 min room temperature (SSTR2 wild-type);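 as to Bottom (best-fit value): normalized to the maximal wild-type response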;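 as to Bottom (best-fit): normalized to the maximal wild-type response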;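 as to Span (best-fit value), cAMP inhibition: normalized to the maximal wild-type response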;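 as to Span (best-fit value): normalized to the maximal wild-type response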;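 as to Span (best-fit): normalized to the maximal wild-type response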;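 as to Span: normalized to the maximal wild-type response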;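 as to Top (best-fit): normalized to the maximal wild-type response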
Assay type: cell-based
Set-up: Best-fit Top, cAMP inhibition / Span, cAMP inhibition / Best-fit Bottom / Best-fit Top / Best-fit Span / Bottom / Span (best-fit value), cAMP inhibition / Top (best-fit value), cAMP inhibition: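 normalized to the maximal wild-type response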
Settings: for Span / Top: best-fit, runs 1-3
Description: The levels of the intracellular 3′, 5′-cyclic AMP (cAMP) were measured by the GloSensor cAMP assay (Promega) as described in the previous studies[28],[41] which has been widely used. The human full-length SSTRs and mutants were cloned into the pcDNA3.1+ vector with a HA signal sequence followed by a Flag tag at the N-terminus. HEK293 cells (ATCC, CRL-1573) were seeded into 6-well microplates at a density of 1.0 × 10^6 cells/well and cultured for 24 h at 37 °C with 5% CO2. Cells were then co-transfected with SSTR wild-type or mutants and GloSensor plasmids. After 24 h of transfection, the cells were dissociated with TrypLE™ Express Enzyme (1X) (Thermo Fisher Scientific) and collected by centrifugation at 500 × g for 5 min. Then the collected cells were suspended in Hank’s balanced salt solution [HBSS (Thermo Fisher Scientific)] supplemented with […] (YEASEN), and then the suspension cells were seeded into 96-well plates with 90 μl/well. After incubating at room temperature for 40 min, 5 μM forskolin and ligands diluted in HBSS were added to each well and the plates were incubated at room temperature for 15 min. […] were measured using the Synergy H1 microplate reader (BioTek) and the data presented are means of at least three independent experiments.

[1] = WT-1 (run 1 of each mutant's batch)

Chain of SSTR2 (P30874 whole entry): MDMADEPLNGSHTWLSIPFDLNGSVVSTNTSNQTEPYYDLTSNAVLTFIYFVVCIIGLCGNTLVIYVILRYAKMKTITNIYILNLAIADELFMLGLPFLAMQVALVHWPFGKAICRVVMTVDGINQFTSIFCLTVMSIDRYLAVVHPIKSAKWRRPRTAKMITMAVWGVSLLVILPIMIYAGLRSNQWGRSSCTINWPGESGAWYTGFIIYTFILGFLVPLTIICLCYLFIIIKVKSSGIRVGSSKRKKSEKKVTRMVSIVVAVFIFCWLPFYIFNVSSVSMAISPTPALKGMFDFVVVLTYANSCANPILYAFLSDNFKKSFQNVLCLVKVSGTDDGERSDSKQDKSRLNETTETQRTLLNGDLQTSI

In the case of `N#Cc1cccc(-c2ccc3ncc(-c4cc(F)cc(F)c4)c(N4CCC(N)CC4)c3c2)c1O` [paltusotine], the EC50 (EC50, Gi signaling, SSTR2 WT, n=6) is reported as 1.88 ± 3.15 nM, the EC50 (EC50, WT-1, run paired with D295F) is reported as 0.307 nM and the EC50 (EC50, WT-1, run paired with F294Y) is reported as 0.307 nM. For the same molecule, the EC50 (EC50, WT-1, run paired with I195M) was 1.09 nM, the EC50 (EC50, WT-1, run paired with T194H) was 1.16 nM and the EC50 (EC50, WT-1, run paired with V103N) was 2.1 nM. The EC50 (EC50, WT-1, run paired with Y205R) was 0.537 nM, the EC50 (EC50, WT-2, run paired with D295F) was 0.501 nM and the EC50 (EC50, WT-2, run paired with F294Y) was 0.501 nM. For the same molecule, the EC50 (EC50, WT-2, run paired with I195M) was 2.02 nM, the EC50 (EC50, WT-2, run paired with T194H) was 1.6 nM and the EC50 (EC50, WT-2, run paired with V103N) was 1.35 nM. It also gave an EC50 (EC50, WT-2, run paired with Y205R) of 0.536 nM, an EC50 (EC50, WT-3, run paired with D295F) of 1.09 nM and an EC50 (EC50, WT-3, run paired with F294Y) of 1.16 nM. For the same molecule, the EC50 (EC50, WT-3, run paired with T194H) was 1.35 nM, the EC50 (EC50, WT-3, run paired with V103N) was 1.08 nM and the EC50 (EC50, WT-3, run paired with Y205R) was 2.1 nM. For the same molecule, the EC50 (EC50, cAMP inhibition best-fit, D122A set, WT-1) was 2.35 nM, the EC50 (EC50, cAMP inhibition best-fit, D122A set, WT-2) was 2.66 nM and the EC50 (EC50, cAMP inhibition best-fit, D122A set, WT-3) was 0.501 nM. The EC50 (EC50, cAMP inhibition best-fit, F127A set, WT-1) was 1.55 nM, the EC50 (EC50, cAMP inhibition best-fit, F127A set, WT-2) was 1.16 nM and the EC50 (EC50, cAMP inhibition best-fit, F127A set, WT-3) was 0.298 nM. For the same molecule, the EC50 (EC50, cAMP inhibition best-fit, I130A set, WT-1) was 0.295 nM, the EC50 (EC50, cAMP inhibition best-fit, I130A set, WT-2) was 0.321 nM and the EC50 (EC50, cAMP inhibition best-fit, I130A set, WT-3) was 1.13 nM. For the same molecule, the EC50 (EC50, cAMP inhibition best-fit, Q102A set, WT-2) was 1.19 nM, the EC50 (EC50, cAMP inhibition best-fit, Q102A set, WT-3) was 1 nM and the EC50 (EC50, cAMP inhibition best-fit, Q126A set, WT-1) was 0.777 nM. The EC50 (EC50, cAMP inhibition best-fit, Q126A set, WT-2) was 1.58 nM, the EC50 (EC50, cAMP inhibition best-fit, Q126A set, WT-3) was 0.845 nM and the EC50 (EC50, cAMP inhibition best-fit, V103A set, WT-1) was 1.58 nM. For the same molecule, the EC50 (EC50, cAMP inhibition best-fit, V103A set, WT-2) was 0.605 nM, the EC50 (EC50, cAMP inhibition best-fit, V103A set, WT-3) was 1.19 nM and the EC50 (EC50, subtype selectivity series, Suppl. Tables 4/5, SSTR2-WT, n=6) was 2.08 ± 1.39 nM. For the same molecule, the “Bottom (best-fit value)” value (F208A panel, WT-1 (run 1)) was -1.411, the “LogEC50 (best-fit value)” value (F208A panel, WT-1 (run 1)) was -9.3 and the “Span (best-fit value)” value (F208A panel, WT-1 (run 1)) was 105.2. For the same molecule, the “Top (best-fit value)” value (F208A panel, WT-1 (run 1)) was 103.8, the “Bottom (best-fit value)” value (F208A panel, WT-2 (run 2)) was 4.431 and the “LogEC50 (best-fit value)” value (F208A panel, WT-2 (run 2)) was -8.26. The “Span (best-fit value)” value (F208A panel, WT-2 (run 2)) was 92.56, the “Top (best-fit value)” value (F208A panel, WT-2 (run 2)) was 96.99 and the “Bottom (best-fit value)” value (F208A panel, WT-3 (run 3)) was 0.6589. For the same molecule, the “LogEC50 (best-fit value)” value (F208A panel, WT-3 (run 3)) was -8.524, the “Span (best-fit value)” value (F208A panel, WT-3 (run 3)) was 92.36 and the “Top (best-fit value)” value (F208A panel, WT-3 (run 3)) was 93.02. For the same molecule, the “Bottom (best-fit value)” value (F265A panel, WT-1 (run 1)) was -3.016, the “LogEC50 (best-fit value)” value (F265A panel, WT-1 (run 1)) was -8.949 and the “Span (best-fit value)” value (F265A panel, WT-1 (run 1)) was 106.8. For the same molecule, the “Top (best-fit value)” value (F265A panel, WT-1 (run 1)) was 103.7, the “Bottom (best-fit value)” value (F265A panel, WT-2 (run 2)) was -3.466 and the “LogEC50 (best-fit value)” value (F265A panel, WT-2 (run 2)) was -9.53. The “Span (best-fit value)” value (F265A panel, WT-2 (run 2)) was 116.5, the “Top (best-fit value)” value (F265A panel, WT-2 (run 2)) was 113 and the “Bottom (best-fit value)” value (F265A panel, WT-3 (run 3)) was -6.932. For the same molecule, the “LogEC50 (best-fit value)” value (F265A panel, WT-3 (run 3)) was -9.494, the “Span (best-fit value)” value (F265A panel, WT-3 (run 3)) was 126.2 and the “Top (best-fit value)” value (F265A panel, WT-3 (run 3)) was 119.3. For the same molecule, the “Bottom (best-fit value)” value (F272A panel, WT-1 (run 1)) was -5.769, the “Top (best-fit value)” value (F272A panel, WT-1 (run 1)) was 108 and the “Bottom (best-fit value)” value (F272A panel, WT-2 (run 2)) was -4.038. The “Top (best-fit value)” value (F272A panel, WT-2 (run 2)) was 107.8, the “Bottom (best-fit value)” value (F272A panel, WT-3 (run 3)) was -0.5501 and the “Top (best-fit value)” value (F272A panel, WT-3 (run 3)) was 106.1. For the same molecule, the “Fold of WT” value (Gi signaling EC50, SSTR2 WT) was 1, the Emax (HEK293) was 100% and the “Bottom (best-fit value)” value (P220A panel, WT-1 (run 1)) was -3.466. The “LogEC50 (best-fit value)” value (P220A panel, WT-1 (run 1)) was -9.53, the “Span (best-fit value)” value (P220A panel, WT-1 (run 1)) was 116.5 and the “Top (best-fit value)” value (P220A panel, WT-1 (run 1)) was 113. The “Bottom (best-fit value)” value (P220A panel, WT-2 (run 2)) was -6.932, the “LogEC50 (best-fit value)” value (P220A panel, WT-2 (run 2)) was -9.494 and the “Span (best-fit value)” value (P220A panel, WT-2 (run 2)) was 126.2. The “Top (best-fit value)” value (P220A panel, WT-2 (run 2)) was 119.3, the “Bottom (best-fit value)” value (P220A panel, WT-3 (run 3)) was -3.016 and the “LogEC50 (best-fit value)” value (P220A panel, WT-3 (run 3)) was -8.949. The “Span (best-fit value)” value (P220A panel, WT-3 (run 3)) was 106.8, the “Top (best-fit value)” value (P220A panel, WT-3 (run 3)) was 103.7 and the Activation potency level (SSTR2, Fig. 1) was “nanomolar level”. For the same molecule, the “Fold of WT” value (Suppl. Tables 4/5, SSTR2-WT) was 1.00, the “Bottom (best-fit value)” value (W269A panel, WT-1 (run 1)) was -3.016 and the “LogEC50 (best-fit value)” value (W269A panel, WT-1 (run 1)) was -8.949. For the same molecule, the “Span (best-fit value)” value (W269A panel, WT-1 (run 1)) was 106.8, the “Top (best-fit value)” value (W269A panel, WT-1 (run 1)) was 103.7 and the “Bottom (best-fit value)” value (W269A panel, WT-2 (run 2)) was -3.466. For the same molecule, the “LogEC50 (best-fit value)” value (W269A panel, WT-2 (run 2)) was -9.53, the “Span (best-fit value)” value (W269A panel, WT-2 (run 2)) was 116.5 and the “Top (best-fit value)” value (W269A panel, WT-2 (run 2)) was 113. For the same molecule, the “Bottom (best-fit value)” value (W269A panel, WT-3 (run 3)) was -6.932, the “LogEC50 (best-fit value)” value (W269A panel, WT-3 (run 3)) was -9.494 and the “Span (best-fit value)” value (W269A panel, WT-3 (run 3)) was 126.2. The “Top (best-fit value)” value (W269A panel, WT-3 (run 3)) was 119.3, the Span (WT (I195A set)) was 93.39 and 87.67 and 121.7 and the Top (WT (I195A set)) was 108 and 99.03 and 119.3. It also gave a LogEC50 (WT (I195A set), run 1, best-fit) of -8.654, a LogEC50 (WT (I195A set), run 2, best-fit) of -8.922 and a LogEC50 (WT (I195A set), run 3, best-fit) of -8.801. The Span (WT (I284A set)) was 107.7 and 93.27 and 111.5, the Top (WT (I284A set)) was 108.3 and 104.9 and 129.6 and the LogEC50 (WT (I284A set), run 1, best-fit) was -8.585. The LogEC50 (WT (I284A set), run 2, best-fit) was -8.622, the LogEC50 (WT (I284A set), run 3, best-fit) was -8.252 and the Span (WT (L99A set)) was 106.7 and 113.8 and 111.8. The Top (WT (L99A set)) was 106.1 and 108 and 107.8, the LogEC50 (WT (L99A set), run 1, best-fit) was -8.998 and the LogEC50 (WT (L99A set), run 2, best-fit) was -8.575. For the same molecule, the LogEC50 (WT (L99A set), run 3, best-fit) was -8.63, the Span (WT (T194A set)) was 106.7 and 111.2 and 111 and the Top (WT (T194A set)) was 106.1 and 108.7 and 106.2. The LogEC50 (WT (T194A set), run 1, best-fit) was -8.998, the LogEC50 (WT (T194A set), run 2, best-fit) was -8.908 and the LogEC50 (WT (T194A set), run 3, best-fit) was -8.937. The Span (WT (Y50A set)) was 113.7 and 115.8 and 115.1, the Top (WT (Y50A set)) was 113.6 and 115.8 and 115.7 and the LogEC50 (WT (Y50A set), run 1, best-fit) was -8.071. For the same molecule, the LogEC50 (WT (Y50A set), run 2, best-fit) was -8.114, the LogEC50 (WT (Y50A set), run 3, best-fit) was -8.128 and the “Span (best-fit value), cAMP inhibition” value [1] was 113.8 and 111.2 and 111.8 and 104.8 and 106.7. For the same molecule, the “Top (best-fit value), cAMP inhibition” value [1] was 108.7 and 107.8 and 108 and 105.3 and 106.1, the “Bottom (best-fit)” value (WT-1, run paired with D295F) was 3.567 and the LogEC50 (WT-1, run paired with D295F) was -9.512. The “Span (best-fit)” value (WT-1, run paired with D295F) was 103.1, the “Top (best-fit)” value (WT-1, run paired with D295F) was 106.7 and the “Bottom (best-fit)” value (WT-1, run paired with F294Y) was 3.567. For the same molecule, the LogEC50 (WT-1, run paired with F294Y) was -9.512, the “Span (best-fit)” value (WT-1, run paired with F294Y) was 103.1 and the “Top (best-fit)” value (WT-1, run paired with F294Y) was 106.7. The “Bottom (best-fit)” value (WT-1, run paired with I195M) was 12.84, the LogEC50 (WT-1, run paired with I195M) was -8.964 and the “Span (best-fit)” value (WT-1, run paired with I195M) was 85.7. For the same molecule, the “Top (best-fit)” value (WT-1, run paired with I195M) was 98.54, the “Bottom (best-fit)” value (WT-1, run paired with T194H) was -4.818 and the LogEC50 (WT-1, run paired with T194H) was -8.937.
